From patent publication US6136992A, “2-alkoxy estradiols and derivatives thereof” (The United States of America as represented by the …, priority 1998, dated 2000)
Where two headings read alike, the source gives them in different places.

How the values were obtained:
OVCAR-3 = test: NCI screen, ovarian cancer; type: cell-based; settings: Homo sapiens, read-out: Log10 GI50, OVCAR-3 (converted)
MCF7/ADR-RES = test: NCI screen, breast cancer; type: cell-based; settings: Homo sapiens, read-out: Log10 GI50, MCF7/ADR-RES (converted)
UACC-62 melanoma cells = test: NCI in vitro anticancer screen, UACC-62 melanoma; type: cell-based; settings: Homo sapiens
Source text: (§1) The effects of the analogs on cancer cell growth was investigated in the National Cancer Institute (NCI) Developmental Therapeutics Program's in vitro panel of approximately 55 cell lines (Grever et al., Seminars in Oncology 19:622 (1992), Alley et al., Cancer Research 48:589 (1988) and Montes et al., J. National Cancer Institute 83:757 (1991)). Representative results are listed in Table 1 for HOP-62 non-small-cell lung cancer cells, HCT-116 colon cancer cells, SF-539 central nervous system (CNS) cancer cells, UACC-62 melanoma cells, OVCAR ovarian cancer cells, SN12-C renal cancer cells, DU-145 prostate cancer cells, and MDA-MB-435 breast cancer cells.
(§2) ^a The cytotoxicity GI50 values are the concentrations

[1] = system: all human cancer cell lines (approximately 55); test: NCI in vitro anticancer screen, all cell lines; type: cell-based
Source text: as §1
^b Mean graph midpoint for all human cancer cell lines (approximately

SK-MEL-5 = test: NCI screen, melanoma; type: cell-based; settings: Homo sapiens, read-out: Log10 GI50, SK-MEL-5 (converted)
SR = test: NCI screen, leukemia; type: cell-based; settings: Homo sapiens, read-out: Log10 GI50, SR (converted)
OVCAR-8 = test: NCI screen, ovarian cancer; type: cell-based; settings: Homo sapiens, read-out: Log10 GI50, OVCAR-8 (converted)
EKVX = test: NCI screen, non-small cell lung cancer; type: cell-based; settings: Homo sapiens, read-out: Log10 GI50, EKVX (converted)
[2] = system: OVCAR ovarian cancer cells; test: NCI in vitro anticancer screen, OVCAR ovarian cancer; type: cell-based; settings: Homo sapiens, read-out: cytotoxicity GI50, Ovarian OVCAR
Source text: as §1, §2

[3] = system: HCT-116 colon cancer cells; test: NCI in vitro anticancer screen, HCT-116 colon cancer; type: cell-based; settings: Homo sapiens
Source text: as §1, §2

tubulin = test: Inhibition of tubulin polymerization (turbidimetry at 350 nm); type: biochemical, bovine; settings: 26° C., 20 min; read-out: Inhibn of Tubulin Polymn IC50
Description: Four instruments were used, and two control reaction mixtures were present in each experiment. […] IC50 values were determined graphically. […]
Inhibition of tubulin polymerization was investigated using electrophoretically homogeneous tubulin from bovine brain.

estrogen receptor = target: T1, estrogen receptor (Rattus norvegicus, UniProt P06211); test: Estrogen binding affinity assay (comparative radiometric binding, rat uterine cytosol)
T1 construct: from tissue; host or cells: rat uterine cytosol
T1 sequence (P06211 1-600): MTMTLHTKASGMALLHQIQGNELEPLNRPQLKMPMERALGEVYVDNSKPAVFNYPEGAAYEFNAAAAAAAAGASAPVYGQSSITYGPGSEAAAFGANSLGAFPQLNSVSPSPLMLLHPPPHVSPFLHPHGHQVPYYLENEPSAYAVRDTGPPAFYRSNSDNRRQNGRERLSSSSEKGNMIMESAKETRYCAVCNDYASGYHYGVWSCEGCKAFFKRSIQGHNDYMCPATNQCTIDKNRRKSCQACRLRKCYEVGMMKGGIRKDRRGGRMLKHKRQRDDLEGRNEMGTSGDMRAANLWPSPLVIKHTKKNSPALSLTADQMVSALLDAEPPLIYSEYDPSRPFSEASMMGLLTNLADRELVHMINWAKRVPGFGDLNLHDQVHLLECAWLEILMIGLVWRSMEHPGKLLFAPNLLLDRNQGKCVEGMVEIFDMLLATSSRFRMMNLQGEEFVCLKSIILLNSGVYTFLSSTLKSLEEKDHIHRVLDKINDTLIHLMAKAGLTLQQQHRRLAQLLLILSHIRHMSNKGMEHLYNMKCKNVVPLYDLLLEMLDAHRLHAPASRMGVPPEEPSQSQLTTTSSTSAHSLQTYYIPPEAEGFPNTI
Description: The assay of (11), (12) and (16) were conducted at 0° C. for 20 hours, while those for (1) and (2) were performed at 0° C. for 18 hours.

RPMI-8226 = test: NCI screen, leukemia; type: cell-based; settings: Homo sapiens, read-out: Log10 GI50, RPMI-8226 (converted)

C[C@]12CC[C@@H]3c4cc(OCC(F)(F)F)c(O)cc4C(=NO)C[C@H]3[C@@H]1CC[C@@H]2O [Compound 12, 2-(2',2', 2'-Trifluoroethoxy)-6-Hydroximino-Estra-1,3,5(10)-Triene-3,17β-Diol]
GI50 (OVCAR-3): < 10 nM | GI50 (MCF7/ADR-RES): < 10 nM | GI50 (UACC-62 melanoma cells; UACC-62, read-out: cytotoxicity GI50, Melanoma UACC-62): < 10 nM | GI50 (UACC-62 melanoma cells; UACC-62, Melanoma, read-out: Log10 GI50, UACC-62 (converted)): < 10 nM | GI50 ([1]; 10^-8 molar is the lowest concentration normally investigated, read-out: GI50): < 10 nM | GI50 ([1]; approximately 55 cell lines, read-out: MGM (mean graph midpoint for all human cancer cell lines), GI50): 10 nM | GI50 ([1]; average of all cell lines of Table 2, read-out: Log10 GI50, Average (all cell lines) (converted)): < 10 nM | GI50 (SK-MEL-5): < 10 nM | GI50 (SR): < 10 nM | GI50 (OVCAR-8): < 10 nM | GI50 (EKVX): < 10 nM | GI50 [2]: < 10 nM | GI50 ([3]; HCT-116, read-out: cytotoxicity GI50, Colon HCT-116): < 10 nM | GI50 ([3]; HCT-116, Colon Cancer, read-out: Log10 GI50, HCT-116 (converted)): < 10 nM | IC50 (tubulin): 500 nM | affinity for the estrogen receptor, in words (estrogen receptor): very week affinity for the receptor | GI50 (RPMI-8226): < 10 nM
